The values that follow come from US20240398828A1, “HETERO-ATOM CONTAINING COMPOUNDS AND USES THEREOF” (Kumquat Biosciences Inc., priority 2021, published 2024).

In one assay the target is T1, PTPN2 (i.e., TC-PTP) (Homo sapiens, UniProt P17706).
T1 sequence (P17706 1-415): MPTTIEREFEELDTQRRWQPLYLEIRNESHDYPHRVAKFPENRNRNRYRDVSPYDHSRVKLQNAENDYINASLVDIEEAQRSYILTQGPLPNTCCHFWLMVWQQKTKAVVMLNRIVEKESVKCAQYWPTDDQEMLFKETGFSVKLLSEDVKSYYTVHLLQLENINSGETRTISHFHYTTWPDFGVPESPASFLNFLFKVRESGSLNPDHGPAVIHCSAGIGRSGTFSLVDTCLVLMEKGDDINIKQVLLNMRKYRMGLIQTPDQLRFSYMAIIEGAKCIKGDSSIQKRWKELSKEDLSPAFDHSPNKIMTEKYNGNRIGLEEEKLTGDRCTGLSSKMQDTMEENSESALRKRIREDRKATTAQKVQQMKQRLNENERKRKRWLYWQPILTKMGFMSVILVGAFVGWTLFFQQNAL
The assay is described as follows: Phosphatase activity assay (DiFMUP substrate), PTPN2. The class given is biochemical. The note with it: compounds binned ≤1 uM or >1 uM. How it is done: (§1) The selectivity and potency of a small molecule PTPN2 inhibitor as provided herein against one or more protein tyrosine phosphatase (PTP) enzymes, and specifically against PTPN2, is assessed in various ways. The one or more PTP enzymes comprise Mycobacterium protein tyrosine phosphatase A (mPTPA), Mycobacterium protein tyrosine phosphatase B (mPTPB), PTPN1 (i.e., PTP1B), PTPN2 (i.e., TC-PTP), PTPN22 (i.e., LYP), SHP-1, SHP-2, FAP-1, Meg2, HePTP, Laforin, VHX, VHR, LMWPTP, Cdc14A, LAR, CD45, PTPRG, a fragment thereof, a variant thereof, and a combination thereof. Selectivity and potency of a small molecule PTPN2 inhibitor is evaluated using a PTP activity inhibition assay. The assay is performed using a buffer comprising 50 mM HEPES buffer pH 7.5, 150 mM NaCl, 0.5 mM EDTA, 1 mM DTT, 0.001% Tween-20.
(§2) The assay is performed using a phosphated substrate, e.g., 10 mM 6,8-Difluoro-4-Methylumbelliferyl Phosphate (DIFMUP) that is stored at −20° C. Alternatively or in addition to, the assay is performed using other phosphated substrate (e.g., fluorescein diphosphate). Each PTP enzyme is diluted in the assay buffer
(§3) The assay can be carried out at room temperature in multiplate format, e.g., using 384 well plates. A small molecule PTPN2 inhibitor dissolved in DMSO at one of 10 concentrations from a serial dilution or DMSO alone for control is added to each well. A mixture of the assay buffer comprising PTP enzyme (e.g., 0.025 ng/ul PTPN2) is added to each well and mixed for approximately 2 minutes. The reaction is initiated by adding DiFMUP diluted in the assay buffer to a final concentration of approximately 45 μM DiFMUP in PTPN2 assay. For each PTP enzyme, DiFMUP is added at the Km (Michaelis constant) of the enzyme that had been independently determined. The phosphatase activity of the PTP enzyme is assessed by monitoring appearance of a fluorescent product (6,8-difluoro-7-hydroxyl-4-coumarin (DiFMU) from DiFMUP) continuously for about 15 to 30 minutes, using the INFINITE M1000Pro plate reader (Tecan) with excitation at 360 nm and emission at 450 nm (cutoff filter at 435 nm) for DiFMU. Each assay is performed at least in duplicate. The rate (e.g., the initial rate) of DiFMU formation is plotted against the concentration of the small molecule PTPN2 inhibitor, and the data is fitted (e.g., using a 4-parameter equation) to determine the inflection point of the fit as the IC50 of the small molecule PTPN2 inhibitor for a specific enzyme. Utilizing this assay, the ability of the compounds in Table 2 to inhibit PTPN2 and PTP1B has been assessed. Table 3 summarizes the IC50 values.

The target in the next assay is T2, PTPN1 (i.e., PTP1B) (Homo sapiens, UniProt P18031).
T2 sequence (P18031 1-435): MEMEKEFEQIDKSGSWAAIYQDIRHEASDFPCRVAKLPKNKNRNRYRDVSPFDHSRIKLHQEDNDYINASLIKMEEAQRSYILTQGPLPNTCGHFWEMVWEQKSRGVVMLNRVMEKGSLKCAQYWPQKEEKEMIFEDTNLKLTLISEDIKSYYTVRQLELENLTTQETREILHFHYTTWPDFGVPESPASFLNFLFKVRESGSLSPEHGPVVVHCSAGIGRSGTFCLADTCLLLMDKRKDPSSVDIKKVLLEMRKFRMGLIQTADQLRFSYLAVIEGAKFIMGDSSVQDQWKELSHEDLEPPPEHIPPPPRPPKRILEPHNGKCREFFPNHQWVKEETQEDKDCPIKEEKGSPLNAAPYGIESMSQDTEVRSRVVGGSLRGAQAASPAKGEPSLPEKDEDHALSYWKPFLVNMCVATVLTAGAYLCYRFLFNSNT
The assay can be described thus: Phosphatase activity assay (DiFMUP substrate), PTP1B. The class given is biochemical. The note with it: compounds binned ≤1 uM or >1 uM. How it is done: as §1, §2, §3

Consider `O=C1CN(c2c(O)ccc(-c3cccc(N4CCCC4)c3)c2F)S(=O)(=O)N1` [Compound 122, 5-(2-fluoro-4-hydroxy-3′-(pyrrolidin-1-yl)-[1,1′-biphenyl]-3-yl)-1,2,5-thiadiazolidin-3-one 1,1-dioxide], for which the IC50 was not above 1000 nM on PTPN2 (i.e., TC-PTP) and not above 1000 nM at PTPN1 (i.e., PTP1B).

As to `NC(=O)C1CC1c1cc(-c2ccc(O)c(N3CC(=O)NS3(=O)=O)c2F)[nH]n1` (centres unmarked) [Compound 533, 2-(5-(3-(1,1-dioxido-4-oxo-1,2,5-thiadiazolidin-2-yl)-2-fluoro-4-hydroxyphenyl)-1H-pyrazol-3-yl)cyclopropane-1-carboxamide], the IC50 on PTPN2 (i.e., TC-PTP) was not above 1000 nM; on PTPN1 (i.e., PTP1B), not above 1000 nM.

Turning to `CC1C(=O)NS(=O)(=O)N1c1c(O)ccc(-c2cnn(Cc3cccc(F)c3)c2)c1F` (centres unmarked) [Compound 155, 5-(2-fluoro-3-(1-(3-fluorobenzyl)-1H-pyrazol-4-yl)-6-hydroxyphenyl)-4-methyl-1,2,5-thiadiazolidin-3-one 1,1-dioxide], the IC50 on PTPN2 (i.e., TC-PTP) was not above 1000 nM; at PTPN1 (i.e., PTP1B) it was not above 1000 nM.

In the case of `Cc1c(-c2cnn(CCC(C)C)c2)ccc(O)c1N1CC(=O)NS1(=O)=O` [Compound 119, 5-(6-hydroxy-3-(1-isopentyl-1H-pyrazol-4-yl)-2-methylphenyl)-1,2,5-thiadiazolidin-3-one 1,1-dioxide], the IC50 on PTPN2 (i.e., TC-PTP) was not above 1000 nM; on PTPN1 (i.e., PTP1B), not above 1000 nM.

`O=C1CN(c2c(O)ccc(-c3cnn(Cc4cncnc4)c3)c2F)S(=O)(=O)N1` [Compound 197, 5-(2-fluoro-6-hydroxy-3-(1-(pyrimidin-5-ylmethyl)-1H-pyrazol-4-yl)phenyl)-1,2,5-thiadiazolidin-3-one 1,1-dioxide]: the IC50 is not above 1000 nM at PTPN2 (i.e., TC-PTP) and not above 1000 nM at PTPN1 (i.e., PTP1B).

Turning to `N#CCCc1cc(-c2ccc(O)c(N3CC(=O)NS3(=O)=O)c2F)n[nH]1` [Compound 373, 3-(3-(3-(1,1-dioxido-4-oxo-1,2,5-thiadiazolidin-2-yl)-2-fluoro-4-hydroxyphenyl)-1H-pyrazol-5-yl)propanenitrile], the IC50 at PTPN2 (i.e., TC-PTP) is not above 1000 nM; at PTPN1 (i.e., PTP1B), not above 1000 nM.

With `Cc1ccccc1-n1cnc(-c2ccc(O)c(N3CC(=O)NS3(=O)=O)c2F)c1` [Compound 418, 5-(2-fluoro-6-hydroxy-3-(1-(o-tolyl)-1H-imidazol-4-yl)phenyl)-1,2,5-thiadiazolidin-3-one 1,1-dioxide], the IC50 is not above 1000 nM at PTPN2 (i.e., TC-PTP) and not above 1000 nM at PTPN1 (i.e., PTP1B).

With `O=C1CN(c2c(O)ccc(-c3cnn(Cc4cc(F)cc(F)c4)c3)c2F)S(=O)(=O)N1` [Compound 113, 5-(3-(1-(3,5-difluorobenzyl)-1H-pyrazol-4-yl)-2-fluoro-6-hydroxyphenyl)-1,2,5-thiadiazolidin-3-one 1,1-dioxide], the concentration for half-maximal inhibition (IC50) on PTPN2 (i.e., TC-PTP) is not above 1000 nM; at PTPN1 (i.e., PTP1B), not above 1000 nM.

Consider `N#CC1(c2cc(-c3ccc(O)c(N4CC(=O)NS4(=O)=O)c3F)[nH]n2)CC1` [Compound 441, 1-(5-(3-(1,1-dioxido-4-oxo-1,2,5-thiadiazolidin-2-yl)-2-fluoro-4-hydroxyphenyl)-1H-pyrazol-3-yl)cyclopropane-1-carbonitrile], for which the IC50 on PTPN2 (i.e., TC-PTP) was not above 1000 nM; on PTPN1 (i.e., PTP1B), not above 1000 nM.

In the case of `O=C1CN(c2c(O)ccc(-c3cc(O)cc4ccccc34)c2F)S(=O)(=O)N1` [Compound 218, 5-(2-fluoro-6-hydroxy-3-(3-hydroxynaphthalen-1-yl)phenyl)-1,2,5-thiadiazolidin-3-one 1,1-dioxide], the IC50 is more than 1000 nM at PTPN2 (i.e., TC-PTP) and more than 1000 nM on PTPN1 (i.e., PTP1B).

Take `CC(C)CCNC1CCN(c2ccc(O)c(N3CC(=O)NS3(=O)=O)c2F)C1` (centres unmarked) [Compound 163, 5-(2-fluoro-6-hydroxy-3-(3-(isopentylamino)pyrrolidin-1-yl)phenyl)-1,2,5-thiadiazolidin-3-one 1,1-dioxide]: the IC50 was not above 1000 nM at PTPN2 (i.e., TC-PTP) and not above 1000 nM on PTPN1 (i.e., PTP1B).

Turning to `Cn1cc(-c2ccc(O)c(N3CC(=O)NS3(=O)=O)c2F)nc1N` [Compound 503, 5-(3-(2-amino-1-methyl-1H-imidazol-4-yl)-2-fluoro-6-hydroxyphenyl)-1,2,5-thiadiazolidin-3-one 1,1-dioxide], the IC50 at PTPN2 (i.e., TC-PTP) was not above 1000 nM; at PTPN1 (i.e., PTP1B), not above 1000 nM.

As for `Cn1cc(-c2ccc(O)c(N3CC(=O)NS3(=O)=O)c2F)nc1C1CC1(F)F` (centres unmarked) [Compound 472, 5-(3-(2-(2,2-difluorocyclopropyl)-1-methyl-1H-imidazol-4-yl)-2-fluoro-6-hydroxyphenyl)-1,2,5-thiadiazolidin-3-one 1,1-dioxide], the IC50 at PTPN2 (i.e., TC-PTP) is more than 1000 nM; at PTPN1 (i.e., PTP1B), not above 1000 nM.

Take `O=C1CN(c2c(O)ccc(C3=CCN(S(=O)(=O)CCC(F)(F)F)C3)c2F)S(=O)(=O)N1` [Compound 251, 5-(2-fluoro-6-hydroxy-3-(1-((3,3,3-trifluoropropyl)sulfonyl)-2,5-dihydro-1H-pyrrol-3-yl)phenyl)-1,2,5-thiadiazolidin-3-one 1,1-dioxide]: the IC50 is not above 1000 nM on PTPN2 (i.e., TC-PTP) and not above 1000 nM on PTPN1 (i.e., PTP1B).

Regarding `O=C1CN(c2c(O)ccc(C3=CCN(CC(F)(F)F)CC3)c2F)S(=O)(=O)N1` [Compound 393, 5-(2-fluoro-6-hydroxy-3-(1-(2,2,2-trifluoroethyl)-1,2,3,6-tetrahydropyridin-4-yl)phenyl)-1,2,5-thiadiazolidin-3-one 1,1-dioxide], the IC50 at PTPN2 (i.e., TC-PTP) was not above 1000 nM; at PTPN1 (i.e., PTP1B), not above 1000 nM.

As to `CCC1C=C(c2ccc(O)c(N3CC(=O)NS3(=O)=O)c2F)CN1` (centres unmarked) [Compound 493, 5-(3-(5-ethyl-2,5-dihydro-1H-pyrrol-3-yl)-2-fluoro-6-hydroxyphenyl)-1,2,5-thiadiazolidin-3-one 1,1-dioxide], the IC50 on PTPN2 (i.e., TC-PTP) was not above 1000 nM; on PTPN1 (i.e., PTP1B), not above 1000 nM.

`O=C1CN(c2c(O)ccc(-c3cc(C4CC4(F)F)nn3CC(F)F)c2F)S(=O)(=O)N1` (centres unmarked) [Compound 491, 5-(3-(3-(2,2-difluorocyclopropyl)-1-(2,2-difluoroethyl)-1H-pyrazol-5-yl)-2-fluoro-6-hydroxyphenyl)-1,2,5-thiadiazolidin-3-one 1,1-dioxide]: the IC50 at PTPN2 (i.e., TC-PTP) is not above 1000 nM; at PTPN1 (i.e., PTP1B), not above 1000 nM.

As for `O=C1CN(c2c(O)ccc(C3CCN(S(=O)(=O)C4CC4)C3)c2F)S(=O)(=O)N1` (centres unmarked) [Compound 359, 5-(3-(1-(cyclopropylsulfonyl)pyrrolidin-3-yl)-2-fluoro-6-hydroxyphenyl)-1,2,5-thiadiazolidin-3-one 1,1-dioxide], the IC50 was not above 1000 nM at PTPN2 (i.e., TC-PTP) and not above 1000 nM on PTPN1 (i.e., PTP1B).

`CC(C)CCn1cnc(-c2ccc(O)c(C3CC(=O)NS3(=O)=O)c2F)c1` (centres unmarked) [Compound 246, 5-(2-fluoro-6-hydroxy-3-(1-isopentyl-1H-imidazol-4-yl)phenyl)isothiazolidin-3-one 1,1-dioxide]: the IC50 at PTPN2 (i.e., TC-PTP) was more than 1000 nM; at PTPN1 (i.e., PTP1B), more than 1000 nM.

By IC50 is commonly meant the midpoint of a concentration-inhibition curve.
